Laboratory results: article PMC11940194, “Synthesis, Antiproliferative Activity, and ADME Profiling of Novel Racemic and Optically Pure Aryl-Substituted Purines and Purine Bioisosteres” (Biomolecules, 2025)

Legend:
[1] = system: colorectal carcinoma (HT-29) cells; assay: Antiproliferative MTT assay, HT-29; type: cell-based, human; settings: for IC50: Homo sapiens, HT-29, 72 h, 72 h incubation, MTT, mean ± SD; for SI (HT-29): SI = [IC50 HFF]/[IC50 HT-29]
How it was run: (§1)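 Human cancer lines and HFF-1 fibroblasts, cultured at 37 °C under 5% CO2 in serum-supplemented medium, were treated for 72 h over a 0.01–100 µM range. MTT gave growth rate, and 5-Fluorouracil served as reference.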

[2] = system: hepatocellular carcinoma (HepG2) cells; assay: Antiproliferative MTT assay, HepG2; type: cell-based, human; settings: for IC50: Homo sapiens, HepG2, 72 h, 72 h incubation, MTT, mean ± SD; for SI (HepG2): SI = [IC50 HFF]/[IC50 HepG2]
How it was run: as §1

[3] = system: P-glycoprotein (human MDR1); assay: MDCKII-MDR1 permeability assay; type: in vitro ADME, canine cells with over-expressed human MDR1 gene; settings: dog, MDCK-MDR1; for Papp A→B at 60 min, 10 µM / Papp B→A at 60 min, 10 µM: 37 °C; for efflux ratio at 60 min, 10 µM: <2 no efflux, >2 active efflux; for Papp at 60 min, 10 µM: permeability class
Method: (§2) MDCKII-hMDR1 cells were obtained from Solvo Biotechnology, Hungary. DMEM, fetal bovine serum, Glutamax-100, Antibiotic/Antimycotic, DMSO, Dulbecco’s phosphate-buffered saline, and MEM Non-essential amino acids were purchased from Sigma (St. Louis, MO, USA). Bi-directional permeability and P-glycoprotein substrate assessments were carried out in Madin-Darby canine epithelial cells with the over-expressed human MDR1 gene (MDCKII-MDR1), coding for P-glycoprotein. Experimental procedures, as well as cell culture conditions, were the same as previously described. Briefly, compounds (10 µM, 1% DMSO v/v) in duplicate were incubated at 37 °C for 60 min with cell monolayer on 24-well Millicell inserts (Millipore, Burlington, MA, USA) with and without the P-glycoprotein inhibitor Elacridar (2 µM, International Laboratory, San Francisco, CA, USA). The inhibition of P-glycoprotein was verified by amprenavir (Moravek Biochemicals Inc, Brea, CA, USA) and monolayer integrity using Lucifer yellow (Sigma, St. Louis, MO, USA). LC-MS/MS measured compound concentrations and Lucifer yellow was measured on an Infinite F500 (Tecan, Männedorf, CH, Switzerland) using excitation of 485 nm and emission of 530 nm.
(§3) All samples were quantified using tandem mass spectrometry coupled to liquid chromatography. Samples were analyzed on a Sciex API4000 Triple Quadrupole Mass Spectrometer (Sciex, Division of MDS Inc., Toronto, Canada) coupled to a Shimadzu Nexera X2 UHPLC frontend (Kyoto, Japan). Samples were injected onto a UHPLC column (HALO2 C18, 2.1 × 20 mm, 2 µm or Luna Omega 1.6 µm Polar C18 100A, 30 × 2.1 mm) and eluted with a gradient at 50 °C. The mobile phase was composed of acetonitrile/water mixture (9/1, with 0.1% formic acid) and 0.1% formic acid in deionized water. The flow rate was 0.7 mL/min under gradient conditions, leading to a total run time of 1.5–2 min. A positive ion mode with turbo spray, an ion source temperature of 550 °C, and a dwell time of 150 ms were utilized for mass spectrometric detection. Quantitation was performed using multiple reaction monitoring (MRM) at the specific transitions for each compound.

[4] = system: MDCKII-MDR1 cells (P-glycoprotein); assay: MDCKII-MDR1 permeability assay; type: in vitro ADME, canine cells with over-expressed human MDR1 gene; settings: for Permeability: permeability class
Method: as §2, §3

[5] = system: pancreatic ductal adenocarcinoma (CFPAC-1) cells; assay: Antiproliferative MTT assay, CFPAC-1; type: cell-based, human; settings: for IC50: Homo sapiens, CFPAC-1, 72 h, 72 h incubation, MTT, mean ± SD; for SI (CFPAC-1): SI = [IC50 HFF]/[IC50 CFPAC-1]
How it was run: as §1

[6] = system: breast adenocarcinoma (MCF7) cells; assay: Antiproliferative MTT assay, MCF-7; type: cell-based, human; settings: for IC50: Homo sapiens, MCF7, 72 h incubation, MTT, mean ± SD; for SI (MCF-7): SI = [IC50 HFF]/[IC50 MCF-7]
How it was run: as §1

[7] = system: normal skin fibroblasts (HFF-1); assay: Cytotoxicity MTT assay, normal skin fibroblasts; type: cell-based, human; settings: Homo sapiens, HFF-1, 72 h, 72 h incubation, mean ± SD
How it was run: as §1

[8] = Metabolic stability in mouse liver microsomes; type: in vitro ADME; settings: for Clearance Class.: mouse liver microsomes
Excerpt: Mouse liver microsomes were obtained from Corning Life Sciences (Corning, NY, USA). DMSO, nicotinamide adenine dinucleotide phosphate (NADP), glucose-6-phosphate, glucose-6-phosphate dehydrogenase, magnesium chloride, propranolol, caffeine, diclofenac, and phosphate-buffered saline (PBS) were purchased from Sigma (St. Louis, MO, USA). Acetonitrile (ACN) and methanol (MeOH) were obtained from Merck (Darmstadt, Germany). Testosterone was purchased from Steraloids (Newport, RI, USA). Metabolic stability was assessed in mouse liver microsomes. Compounds (final concentration of 1 µM, 0.03% DMSO v/v) were incubated in duplicate in phosphate buffer (50 mM, pH 7.4) at 37 °C together with mouse liver microsomes in the absence and presence of the NADPH cofactor (0.5 mM nicotinamide adenine dinucleotide phosphate, 5 mM glucose-6-phosphate, 1.5 U/mL glucose-6-phosphate dehydrogenase, and 0.5 mM magnesium chloride). Incubation and sampling were performed on a Freedom EVO 200 (Tecan, Männedorf, CH, Switzerland) at […], 10, 20, 30, 45, and 60 min. The reaction was quenched using 3 volumes of a mixture of ACN/MeOH (2:1) containing internal standard (diclofenac), centrifuged, and the supernatants were analyzed using LC-MS/MS. The metabolic activity of the microsomes was verified via simultaneous analysis of several controls including testosterone, propranolol, and caffeine. The in vitro half-life (t1/2) was calculated using GraphPad Prism (v9.0 software) non-linear regression of % of parent compound remaining versus time. In vitro clearance, expressed as µL/min/mg, was estimated from the in vitro half-life (t1/2) and normalized for the protein amount in the incubation mixture, assuming 52.5 mg of protein per gram of liver and using constant values for mouse liver weight/body weight [87.5 g/kg] and mouse liver blood flow (LBF) [131 mL/min/kg].
as §3

SMILES | IC50 [1] [µM] | IC50 [2] [µM] | Papp A→B at 60 min, 10 µM [3] [×10⁻⁶ cm/s] | Papp B→A at 60 min, 10 µM [3] [×10⁻⁶ cm/s] | efflux ratio at 60 min, 10 µM [3] | Permeability [4] | IC50 [5] [µM] | SI (CFPAC-1) [5] | IC50 [6] [µM] | IC50 [7] [µM] | Clearance Class. [8] | Clearance Values (CL) ([8]; predicted in vivo hepatic clearance from mouse liver microsome t1/2, 1 µM compound) [%] | Papp at 60 min, 10 µM [3] [×10⁻⁶ cm/s] | SI (HT-29) [1] | SI (HepG2) [2] | Efflux Ratio ([4]; <2 no efflux, >2 active efflux) | SI (MCF-7) [6]
OCC(c1ccc(Br)cc1)n1cc(Cn2ccc3ccccc32)nn1 (stereo not shown) [Compound 29a, 1-((1-(2-Hydroxy-1-(4-bromophenyl)ethyl)-1H-1,2,3-triazol-4-yl)methyl)-1H-indole] | 34 ± 0.3 | 29 ± 0.8 | 10 | 25.5 | 2.6 | HIGH | 39 ± 2.8 | >2.6 | 24 ± 1 | > 100 | MODERATE (30–70% moderate) | 43 | – | – | – | – | –
OCC(c1ccc(Br)cc1)n1cc(Cn2cnc3ccccc32)nn1 (stereo not shown) [Compound 34a, 1-((1-(2-Hydroxy-1-(4-bromophenyl)ethyl)-1H-1,2,3-triazol-4-yl)methyl)-1H-benzimidazole] | 39 ± 4.3 | 35 ± 14.2 | ≤ 2 | 65.7 | 32.8 | – | 15 ± 8.9 | 2.8 | 22 ± 5.1 | 42 ± 8.3 | LOW (<30% low) | – | ≤ 2 | – | – | – | –
OCC(c1ccc(Br)cc1)n1cc(Cn2cnc3c(Cl)ncnc32)nn1 (stereo not shown) [Compound 39a, 6-Chloro-9-((1-(2-hydroxy-1-(4-bromophenyl)ethyl)-1H-1,2,3-triazol-4-yl)methyl)-9H-purine] | 31 ± 2.6 | 16 ± 5.6 | – | 58 | 68.1 | – | 46 ± 3.8 | – | 14 ± 4.8 | 14 ± 4.7 | – | – | ≤ 2 | 0.5 | 0.9 | – | –
OC(Cn1cc(Cn2cnc3c(Cl)ncnc32)nn1)c1ccc(Br)cc1 (stereo not shown) [Compound 39b, 6-Chloro-9-((1-(2-hydroxy-2-(4-bromophenyl)ethyl)-1H-1,2,3-triazol-4-yl)methyl)-9H-purine] | 50 ± 0.6 | 44 ± 8.1 | 3.1 | 69.6 | 22.5 | MODERATE | 15 ± 1 | – | 21 ± 14 | 30 ± 2.7 | – | – | – | 0.6 | 0.7 | – | –
OC(Cn1cc(Cn2cnc3c(Cl)ncnc32)nn1)c1ccc(C(F)(F)F)cc1 (stereo not shown) [Compound 40b, 6-Chloro-9-((1-(2-hydroxy-2-(4-(trifluoromethyl)phenyl)ethyl)-1H-1,2,3-triazol-4-yl)methyl)-9H-purine] | 14 ± 8.1 | 15 ± 9 | – | – | – | – | 25 ± 6.4 | – | 28 ± 6.7 | 8 ± 4.8 | low clearance | – | – | 0.6 | 0.5 | higher efflux values | –
OCC(c1ccc(Br)cc1)n1cc(Cn2cnc3c(Cl)nccc32)nn1 (stereo not shown) [Compound 49a, 4-Chloro-1-((1-(2-hydroxy-1-(4-bromophenyl)ethyl)-1H-1,2,3-triazol-4-yl)methyl)-1H-imidazo[4,5-c]pyridine] | 77 ± 1.1 | 66 ± 22.8 | ≤ 2 | 41.1 | 41.4 | – | 77 ± 0.5 | – | 77 ± 3 | 90 ± 4.04 | LOW (<30% low) | – | ≤ 2 | – | 1.4 | – | –
O[C@H](Cn1cc(Cn2ccc3c(Cl)ncnc32)nn1)c1ccc(F)cc1 [Compound (S)-42b, (S)-4-Chloro-7-((1-(2-hydroxy-2-(4-fluorophenyl)ethyl)-1H-1,2,3-triazol-4-yl)methyl)-7H-pyrrolo[2,3-d]pyrimidine] | 33 ± 0.2 | 49 ± 2 | – | – | – | – | 13 ± 2.7 | 5.6 | 41 | 73 ± 2.4 | – | – | – | – | – | – | 1.8
O[C@H](Cn1cc(Cn2ccc3c(Cl)ncnc32)nn1)c1ccc(Cl)cc1 [Compound (S)-43b, (S)-4-Chloro-7-((1-(2-hydroxy-2-(4-chlorophenyl)ethyl)-1H-1,2,3-triazol-4-yl)methyl)-7H-pyrrolo[2,3-d]pyrimidine] | 33 ± 7.8 | 21 ± 0.8 | – | – | – | – | 31 ± 5.3 | 1.3 | 33 ± 5.8 | 41 ± 1.1 | – | – | – | – | – | – | 1.2
O[C@H](Cn1cc(Cn2ccc3c(Cl)ncnc32)nn1)c1ccc(C(F)(F)F)cc1 [Compound (S)-45b, (S)-4-Chloro-7-((1-(2-hydroxy-2-(4-(trifluoromethyl)phenyl)ethyl)-1H-1,2,3-triazol-4-yl)methyl)-7H-pyrrolo[2,3-d]pyrimidin] | 31 ± 2.2 | 23 ± 2.3 | – | – | – | – | 43 ± 10.8 | 1.0 | 26 ± 8.5 | 43 ± 3.9 | – | – | – | – | – | – | 1.7
